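Briefly, cells in 96-well plates were exposed to five compound concentrations for 48 h, and endpoints were estimated by linear interpolation. GI50 marks 50% less growth. Definition used: TGI = concentration required for complete inhibition of growth.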
Legend:
Assay in all cases: NCI anticancer screen, dose series, 48 h
[1] = test system: RPMI-8226 leukemia
[2] = test system: HOP-92 NSCLC
[3] = test system: SK-OV-3 ovarian
[4] = test system: K-562 leukemia
[5] = test system: ACHN renal
[6] = test system: IGROV1 ovarian
[7] = test system: MOLT-4 leukemia
[8] = test system: SN12C renal
[9] = test system: A498 renal
[10] = test system: HOP-62 NSCLC
[11] = test system: COLO 205 colon
[12] = test system: MDA-MB-231 breast
[13] = test system: A549 NSCLC
[14] = test system: NCI/ADR-RES ovarian
[15] = test system: MCF7 breast
[16] = test system: M14 melanoma
[17] = test system: OVCAR-5 ovarian
[18] = test system: HT29 colon
[19] = test system: HCT-15 colon
[20] = test system: MDA-MB-468 breast
[21] = test system: NCI-H460 lung
[22] = test system: OVCAR-8 ovarian
[23] = test system: SR leukemia
[24] = test system: CAKI-1 renal
[25] = test system: UACC-62 melanoma
[26] = test system: SK-MEL-2 melanoma
[27] = test system: HCT-116 colon
[28] = test system: SNB-19 CNS
[29] = test system: PC-3 prostate
[30] = test system: MALME-3M melanoma
[31] = test system: NCI-H23 lung
[32] = test system: T-47D breast
[33] = test system: U251 CNS
[34] = test system: SW-620 colon
[35] = test system: RXF 393 renal
[36] = test system: HS 578T breast
[37] = test system: EKVX NSCLC
[38] = test system: KM12 colon
[39] = test system: DU-145 prostate
[40] = test system: TK-10 renal
[41] = test system: UACC-257 melanoma
[42] = test system: SF-295 CNS
[43] = test system: LOX IMVI melanoma
[44] = test system: SK-MEL-28 melanoma
[45] = test system: SF-539 CNS
[46] = test system: UO-31 renal
[47] = test system: SK-MEL-5 melanoma
[48] = test system: OVCAR-4 ovarian
[49] = test system: BT-549 breast
[50] = test system: CCRF-CEM leukemia
[51] = test system: SF-268 CNS
[52] = test system: NCI-H226 lung
[53] = test system: MDA-MB-435
[54] = test system: OVCAR-3 ovarian
[55] = test system: 786-0 renal
[56] = test system: HCC-2998 colon
[57] = test system: NCI-H522 lung

Question: For `COc1ccccc1/C=C/C(=O)c1ccc(OC)c(S(N)(=O)=O)c1`, which GI50 [1] is on record?
Answer: 2.49 µM

Question: What about the TGI [1] of the same compound?
Answer: 7.46 µM

Question: And the GI50 [2]?
Answer: 2.08 µM

Question: And the TGI [2]?
Answer: 8.78 µM

Question: And the GI50 [3]?
Answer: 7.25 µM

Question: What about the TGI [3] of the same compound?
Answer: 20.4 µM

Question: What about the GI50 [4] of the same compound?
Answer: 0.349 µM

Question: What about the TGI [4] of the same compound?
Answer: 14.6 µM

Question: And the GI50 [5]?
Answer: 3.38 µM

Question: And the TGI [5]?
Answer: 12.4 µM

Question: What about the GI50 [6] of the same compound?
Answer: 3.08 µM

Question: What about the TGI [6] of the same compound?
Answer: 11.5 µM

Question: And the GI50 [7]?
Answer: 2.4 µM

Question: And the TGI [7]?
Answer: 8.35 µM

Question: And the GI50 [8]?
Answer: 2.79 µM

Question: And the TGI [8]?
Answer: 10.4 µM

Question: And the GI50 [9]?
Answer: 10.6 µM

Question: And the TGI [9]?
Answer: 22.6 µM

Question: And the GI50 [10]?
Answer: 2.88 µM

Question: What about the TGI [10] of the same compound?
Answer: 10.3 µM

Question: What about the GI50 [11] of the same compound?
Answer: 3.54 µM

Question: What about the TGI [11] of the same compound?
Answer: 13.4 µM

Question: What about the GI50 [12] of the same compound?
Answer: 2.72 µM

Question: And the TGI [12]?
Answer: 7.47 µM

Question: And the GI50 [13]?
Answer: 3.11 µM

Question: What about the TGI [13] of the same compound?
Answer: 13 µM

Question: And the GI50 [14]?
Answer: 2.29 µM

Question: And the TGI [14]?
Answer: 6.68 µM

Question: What about the GI50 [15] of the same compound?
Answer: 2.67 µM

Question: What about the TGI [15] of the same compound?
Answer: 11.3 µM

Question: And the GI50 [16]?
Answer: 2.71 µM

Question: And the TGI [16]?
Answer: 11.8 µM

Question: What about the GI50 [17] of the same compound?
Answer: 2.2 µM

Question: And the TGI [17]?
Answer: 6.14 µM

Question: What about the GI50 [18] of the same compound?
Answer: 3.06 µM

Question: And the TGI [18]?
Answer: 10.2 µM

Question: What about the GI50 [19] of the same compound?
Answer: 1.99 µM

Question: And the TGI [19]?
Answer: 10.5 µM

Question: And the GI50 [20]?
Answer: 2.04 µM

Question: What about the TGI [20] of the same compound?
Answer: 5.91 µM

Question: And the GI50 [21]?
Answer: 2.09 µM

Question: And the TGI [21]?
Answer: 5.51 µM

Question: What about the GI50 [22] of the same compound?
Answer: 2.36 µM

Question: What about the TGI [22] of the same compound?
Answer: 7.16 µM

Question: And the GI50 [23]?
Answer: 1.44 µM

Question: And the TGI [23]?
Answer: 6.2 µM

Question: What about the GI50 [24] of the same compound?
Answer: 3.18 µM

Question: And the TGI [24]?
Answer: 13 µM

Question: And the GI50 [25]?
Answer: 2.95 µM

Question: What about the TGI [25] of the same compound?
Answer: 12.3 µM

Question: What about the GI50 [26] of the same compound?
Answer: 10.4 µM

Question: What about the TGI [26] of the same compound?
Answer: 22.3 µM

Question: And the GI50 [27]?
Answer: 2.49 µM

Question: What about the TGI [27] of the same compound?
Answer: 9.38 µM

Question: And the GI50 [28]?
Answer: 4.02 µM

Question: And the TGI [28]?
Answer: 15.3 µM

Question: And the GI50 [29]?
Answer: 4.81 µM

Question: What about the TGI [29] of the same compound?
Answer: 18.5 µM

Question: What about the GI50 [30] of the same compound?
Answer: 3.99 µM

Question: And the TGI [30]?
Answer: 16.2 µM

Question: What about the GI50 [31] of the same compound?
Answer: 2.29 µM

Question: What about the TGI [31] of the same compound?
Answer: 9.56 µM

Question: And the GI50 [32]?
Answer: 3.25 µM

Question: What about the TGI [32] of the same compound?
Answer: 12.3 µM

Question: What about the GI50 [33] of the same compound?
Answer: 2.58 µM

Question: And the TGI [33]?
Answer: 10.7 µM

Question: What about the GI50 [34] of the same compound?
Answer: 2.86 µM

Question: What about the TGI [34] of the same compound?
Answer: 10.8 µM

Question: What about the GI50 [35] of the same compound?
Answer: 2.35 µM

Question: What about the TGI [35] of the same compound?
Answer: 8.86 µM

Question: What about the GI50 [36] of the same compound?
Answer: 3.27 µM

Question: What about the TGI [36] of the same compound?
Answer: 20 µM

Question: And the GI50 [37]?
Answer: 3.58 µM

Question: What about the TGI [37] of the same compound?
Answer: 14.1 µM

Question: And the GI50 [38]?
Answer: 2.89 µM

Question: What about the TGI [38] of the same compound?
Answer: 10 µM

Question: What about the GI50 [39] of the same compound?
Answer: 3.22 µM

Question: And the TGI [39]?
Answer: 12 µM

Question: And the GI50 [40]?
Answer: 3.54 µM

Question: What about the TGI [40] of the same compound?
Answer: 13 µM

Question: What about the GI50 [41] of the same compound?
Answer: 5.96 µM

Question: And the TGI [41]?
Answer: 19.6 µM

Question: What about the GI50 [42] of the same compound?
Answer: 2.66 µM

Question: And the TGI [42]?
Answer: 10.6 µM

Question: And the GI50 [43]?
Answer: 1.98 µM

Question: What about the TGI [43] of the same compound?
Answer: 5.27 µM

Question: What about the GI50 [44] of the same compound?
Answer: 4.49 µM

Question: What about the TGI [44] of the same compound?
Answer: 15.8 µM

Question: What about the GI50 [45] of the same compound?
Answer: 2.25 µM

Question: What about the TGI [45] of the same compound?
Answer: 4.96 µM

Question: What about the GI50 [46] of the same compound?
Answer: 2.9 µM

Question: And the TGI [46]?
Answer: 13.4 µM

Question: What about the GI50 [47] of the same compound?
Answer: 3.85 µM

Question: And the TGI [47]?
Answer: 14.2 µM

Question: What about the GI50 [48] of the same compound?
Answer: 3.65 µM

Question: What about the TGI [48] of the same compound?
Answer: 16.4 µM

Question: And the GI50 [49]?
Answer: 2.58 µM

Question: And the TGI [49]?
Answer: 8.21 µM

Question: What about the GI50 [50] of the same compound?
Answer: 2.53 µM

Question: What about the TGI [50] of the same compound?
Answer: 6.81 µM

Question: What about the GI50 [51] of the same compound?
Answer: 3.28 µM

Question: And the TGI [51]?
Answer: 12 µM

Question: And the GI50 [52]?
Answer: 3.96 µM

Question: What about the TGI [52] of the same compound?
Answer: 15.5 µM

Question: What about the GI50 [53] of the same compound?
Answer: 2.98 µM

Question: What about the TGI [53] of the same compound?
Answer: 11.5 µM

Question: What about the GI50 [54] of the same compound?
Answer: 2.23 µM

Question: What about the TGI [54] of the same compound?
Answer: 5.05 µM

Question: What about the GI50 [55] of the same compound?
Answer: 3.25 µM

Question: And the TGI [55]?
Answer: 12.9 µM

Question: And the GI50 [56]?
Answer: 2.65 µM

Question: What about the TGI [56] of the same compound?
Answer: 12 µM

Question: And the GI50 [57]?
Answer: 2.12 µM

Question: And the TGI [57]?
Answer: 6.58 µM

From PubChem BioAssay (NCI)
